Molecular target: CYP3A4 (Homo sapiens, UniProt P08684)
Assay: CYP3A4-mediated midazolam 1′-hydroxylation in human liver microsomes (IC50 and time-dependent inhibition)
Assay type: in vitro ADME
Set-up: from tissue; host or cells: ultrapooled human liver microsomes
Method: The inhibitory potential (IC50 values) of EAM-2201 on CYP1A2, CYP2A6, CYP2C8, CYP2C9, CYP2C19, CYP2D6 and CYP3A4 were evaluated using ultrapooled human liver microsomes and a cocktail of seven CYP substrates followed by LC-tandem mass spectrometry (LC-MS/MS) as previously described. Each incubation mixture was prepared in a total volume of 100 µL as follows: pooled human liver microsomes (5.2 pmol CYP), 1.0 mM NADPH, 10 mM magnesium chloride, 50 mM potassium phosphate buffer (pH 7.4), various concentrations of EAM-2201 in DMSO (final concentrations of 0.1–50 µM, 0.5% DMSO) and a cocktail of seven CYP probe substrates in 50% acetonitrile (0.5% acetonitrile), including 50 µM phenacetin, 2.5 µM coumarin, 2.0 µM amodiaquine, 10 µM diclofenac, 100 µM [S]-mephenytoin, 5 µM bufuralol and 2.5 µM midazolam in 50% acetonitrile. After a 3-min preincubation at 37 °C, the reactions were initiated by adding NADPH and incubation proceeded for 15 min at 37 °C in a shaking water bath. The reactions were stopped by adding 100 µL of ice-cold methanol containing internal standards (^13C2,^15N-acetaminophen for acetaminophen and N-desethylamodiaquine; d9-1′-hydroxybufuralol for 4′-hydroxydiclofenac, 7-hydroxycoumarin, 4′-hydroxymephenytoin, 1′-hydroxybufuralol and 1′-hydroxy-midazolam). The incubation mixtures were centrifuged at 13,000× g for 4 min at 4 °C and 50 µL of each supernatant was diluted in 50 µL of water. Aliquots (5 µL) of the diluted supernatants were analyzed using LC-MS/MS. All assays were performed in triplicate and the mean values were used in calculations. […] Each reaction was initiated by adding the seven-CYP probe substrate cocktail described above.
The time-dependent inhibitory effects of EAM-2201 on CYP2C8, CYP2C9, CYP2C19 and CYP3A4 activities in ultrapooled human liver microsomes were evaluated using time- and concentration-dependent inhibition assays. Ultrapooled human liver microsomes (26.0 pmol CYP) were pre-incubated with various concentrations of EAM-2201 in DMSO (0.5% DMSO) in 50 mM potassium phosphate buffer (pH 7.4) in the presence of NADPH for predetermined time periods: 5–15 min for CYP2C8 activity, 5–20 min for CYP2C9 activity and 15–40 min for CYP2C19 and CYP3A4 activities. […] Aliquots (5 µL) of the diluted supernatants were analyzed using LC-MS/MS.
The metabolites formed from CYP substrates were simultaneously quantified using our previously described LC-MS/MS method. […]

CYP3A4, sequence (P08684 whole entry): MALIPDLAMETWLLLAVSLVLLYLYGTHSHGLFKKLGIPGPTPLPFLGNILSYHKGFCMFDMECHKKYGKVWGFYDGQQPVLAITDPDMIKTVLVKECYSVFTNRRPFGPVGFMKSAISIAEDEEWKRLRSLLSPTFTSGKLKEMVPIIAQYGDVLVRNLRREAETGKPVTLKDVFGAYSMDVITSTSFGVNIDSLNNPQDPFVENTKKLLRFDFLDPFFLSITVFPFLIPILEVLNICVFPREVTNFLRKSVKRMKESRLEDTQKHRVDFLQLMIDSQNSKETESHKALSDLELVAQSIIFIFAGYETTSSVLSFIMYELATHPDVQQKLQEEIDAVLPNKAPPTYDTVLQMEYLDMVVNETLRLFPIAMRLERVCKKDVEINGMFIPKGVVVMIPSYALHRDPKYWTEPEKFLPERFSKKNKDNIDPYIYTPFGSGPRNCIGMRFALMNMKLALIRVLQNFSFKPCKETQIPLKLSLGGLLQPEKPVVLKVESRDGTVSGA

SMILES: CCc1ccc(C(=O)c2cn(CCCCCF)c3ccccc23)c2ccccc12 [EAM-2201, (4-ethyl-1-naphthalenyl)[1-(5-fluoropentyl)-1H-indol-3-yl]-methanone]
- IC50: 17.6 µM
- kinact/Ki value for CYP3A4 (human liver microsomes): 102 M⁻¹ s⁻¹
- kinact (human, ultrapooled human liver microsomes, pH 7.4, probe midazolam (2 µM), 1′-hydroxylation, read-out: kinact, time-dependent inhibition of CYP3A4 midazolam 1′-hydroxylase (converted)): 0.000417 s⁻¹
- inhibition of CYP3A4-mediated midazolam 1′-hydroxylation (up to 50 µM, without 30-min preincubation, human liver microsomes): negligibly inhibited

Source: article PMC6017357, “In Vitro Inhibitory Effects of Synthetic Cannabinoid EAM-2201 on Cytochrome P450 and UDP-Glucuronosyltransferase Enzyme Activities in Human Liver Microsomes” (Molecules : A Journal of Synthetic Chemistry and Natural …, 2018)
